The subject of one assay is acetylated α-tubulin. Kind of assay: Tubulin acetylation in N2a cells (western blot). Type of assay: cell-based, mouse. To be noted: normalized to the values of DMSO. As for the experimental part:
Cells were collected using RIPA buffer. WB was analyzed using Image QuantTL and the ratio between the intensity of the acetylated tubulin and the tubulin bands was calculated. These ratios were subsequently normalized to the values of DMSO (fold increase). For each sample 50 μg protein was loaded on a 12% SDS-PAGE gel and blotted on a PVDF membrane. The integrated density of acetylated α-tubulin and α-tubulin was measured on WB using Image J software. Furthermore the ratio between the integrated density of acetylated α-tubulin and α-tubulin was calculated.
A general note: In western blotting, separated proteins are transferred to a membrane and probed.

The next assay addresses T1, Human HDAC1 (Homo sapiens, UniProt Q13547).
T1 construct: Full length with C-terminal GST tag, MW=79.9 kDa; GST (C); host or cells: Sf9 insect cells (baculovirus)
Briefly: HDAC1 inhibition assay (fluorogenic p53 peptide substrate). The class given is biochemical. As for the experimental part:
The HDAC1, 2, 4, 5, 6, 7, 8, 9, 10, and 11 assays used isolated recombinant human protein; HDAC3/NcoR2 complex was used for the HDAC3 assay. Substrate for HDAC1, 2, 3, 6, 10, and 11 assays is a fluorogenic peptide from p53 residues 379-382 (RHKKAc); substrate for HDAC8 is fluorogenic diacyl peptide based on residues 379-382 of p53 (RHKAcKAc). Acetyl-Lys(trifluoroacetyl)-AMC substrate was used for HDAC4, 5, 7, and 9 assays. Compounds were dissolved in DMSO and tested in 10-dose IC50 mode with 3-fold serial dilution starting at 30 μM. Control Compound Trichostatin A (TSA) was tested in a 10-dose IC50 with 3-fold serial dilution starting at 5 μM. IC50 values were extracted by curve-fitting the dose/response slopes. Assays were performed in duplicate and IC50 values are an average of data from both experiments.
Human HDAC1 (GenBank Accession No. NM_004964): Full length with C-terminal GST tag, MW=79.9 kDa, expressed by baculovirus expression system in Sf9 cells. Enzyme is in 50 mM Tris-HCl, pH 8.0, 138 mM NaCl, 20 mM glutathione, and 10% glycerol, and stable for >6 months at −80° C. Purity is >10% by SDS-PAGE. Specific Activity is 20 U/μg, where one U=1 pmol/min under assay condition of 25 mM Tris/Cl, pH8.0, 137 mM NaCl, 2.7 mM KCl, 1 mM MgCl2, 0.1 mg/ml BSA, 100 μM HDAC substrate, and 13.2 ng/μl HDAC1, incubation for 30 min at 30° C.
Substrate for HDAC1 and HDAC6: Acetylated peptide substrate for HDAC, based on residues 379-382 of p53 (Arg-His-Lys-Lys(Ac)), a site of regulatory acetylation by the p300 and CBP acetyltransferases (lysines 381, 382)1-6, is the best for HDAC from among a panel of substrates patterned on p53, histone H3 and histone H4 acetylation sites7.
Reaction Buffer: 50 mM Tris-HCl, pH 8.0, 137 mM NaCl, 2.7 mM KCl, 1 mM MgCl2, 1 mg/ml BSA.
HDAC1: 75 nM HDAC1 and 50 μM HDAC substrate are in the reaction buffer and 1% DMSO final. Incubate for 2 hours at 30° C.
All IC50 values are automatically calculated using the GraphPad Prism version 5 and Equation of Sigmoidal dose-response (variable slope): Y=Bottom+(Top−Bottom)/(1+10^((Log EC50−X)*HillSlope)), where X is the logarithm of concentration, Y is the response, Y starts at Bottom and goes to Top with a sigmoid shape. In most cases, “Bottom” is set 0, and “Top” is set “less than 120%”. This is identical to the “four parameter logistic equation”. IC50 curves also are drawn using the GraphPad Prism, and IC50 values and Hill slopes are provided.
HDAC Activity Assays: HDAC assay is performed using fluorescently-labeled acetylated substrate, which comprises an acetylated lysine side chain. After incubation with HDAC, deacetylation of the substrate sensitizes the substrate such that, in a second step, treatment with the detection enzyme produces a fluorophore. HDACs 1 and 6 were expressed as full length fusion proteins. Purified proteins were incubated with 50 μM fluorescently-labeled acetylated peptide substrate and test compound for 2 hours at RT in HDAC assay buffer containing 50 mM Tris-HCl (pH 8.0), 137 mM NaCl, 2.7 mM KCl, 1 mM MgCl2, 1% DMSO, and 1% BSA.
Reactions were terminated by the addition of the Developer after 2 hours, and the development of fluorescence signal, which was relative to the amount of deacetylated peptide, was monitored by time-course measurement of EnVision (PerkinElmer). The HDAC activity was estimated from the slope of time-course measurement of the fluorescence intensity. The slope of no-enzyme control (substrate alone) was served as background, and % Enzyme activity was calculated using background-subtracted slope of no inhibitor control (DMSO) as 100% activity.

A further assay concerns Nrf2. Briefly: Nrf2 activation, Neh2-luc reporter assay. The class given is cell-based. To be noted: measured at 10 μM. As for the experimental part: The present compounds were evaluated for an ability to activate Nrf2 and HIF-1α. Table 1 summarizes Nrf2 activation data obtained in Neh2-luc reporter assay; and HIF1 activation measured in ODD reporter assay.
[1] abbreviates: Table 1, performed by Reaction Biology Corporation, read-out: HDAC isoform IC50 (nM) 1.
Setting [2] is: Table 2 isoform selectivity, read-out: HDAC Inhibition (IC50 uM) isoform 1.

Like-named read-outs stand apart in the source and are kept apart here.

T1 sequence (Q13547 whole entry): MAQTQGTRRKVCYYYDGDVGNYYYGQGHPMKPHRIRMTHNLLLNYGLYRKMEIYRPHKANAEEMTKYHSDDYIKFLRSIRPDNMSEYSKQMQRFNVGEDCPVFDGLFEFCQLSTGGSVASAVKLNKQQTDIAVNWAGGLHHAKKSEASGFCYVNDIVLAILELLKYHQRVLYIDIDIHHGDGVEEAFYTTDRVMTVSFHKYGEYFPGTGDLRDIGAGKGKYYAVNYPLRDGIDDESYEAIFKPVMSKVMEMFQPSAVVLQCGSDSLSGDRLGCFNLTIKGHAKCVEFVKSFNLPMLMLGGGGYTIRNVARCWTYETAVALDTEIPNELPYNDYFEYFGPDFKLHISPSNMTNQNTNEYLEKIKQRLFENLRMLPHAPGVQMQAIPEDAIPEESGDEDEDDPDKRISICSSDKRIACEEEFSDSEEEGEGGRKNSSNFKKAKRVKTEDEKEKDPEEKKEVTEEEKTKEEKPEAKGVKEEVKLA

Consider `O=C(NO)c1ccc(CN2CCc3ccc(F)cc32)cc1` [II-ING-41, 4-((6-Fluoroindolin-1-yl)methyl)-N-hydroxybenzamide], for which the “Ratio acetyl tub/tub fold increase” value in the assay on acetylated α-tubulin (0.1 uM) is reported as 3.47 (0.1 uM) fold. In addition, the IC50 (usually the concentration that gives 50% inhibition) at Human HDAC1 (setting [1]) was 11800 nM; at Human HDAC1 (setting [2]), 3670 nM. Besides, the fold induction (in general, the ratio of treated to control signal) at 10 µM with Nrf2 turned out to be 7.8.

Regarding `Cn1c(NCc2ccc(C(=O)NO)cc2)nc2ccccc21` [II-ING-13, N-Hydroxy-4-(((1-methyl-1H-benzo[d]imidazol-2-yl)amino)methyl)benzamide], the “Ratio acetyl tub/tub fold increase” value in the assay with acetylated α-tubulin (0.01 uM) was 2.0 (0.01 uM) fold. Further, the IC50 on Human HDAC1 (setting [1]) came out at 2630 nM; on Human HDAC1 (setting [2]), 2550 nM. Further, the fold induction at 10 µM with Nrf2 was found to be 1.8.

Turning to `O=C(NO)c1ccc(CN2CCc3ccc(Cl)cc32)cc1` [II-ING-6, 4-((6-Chloroindolin-1-yl)methyl)-N-hydroxybenzamide], the “Ratio acetyl tub/tub fold increase” value in the assay on acetylated α-tubulin (1.0 uM) was 15.5 1.0 uM fold. Moreover, the results for the IC50 at Human HDAC1 (setting [1]) and on Human HDAC1 (setting [2]) were 5580 nM and 3770 nM, respectively. This compound also yielded a fold induction at 10 µM with Nrf2 of 5.6.

On to `O=C(NO)c1ccc(CN2CCc3ccccc32)cc1` [II-ING-44, N-Hydroxy-4-(indolin-1-ylmethyl)benzamide], for which, in the assay on acetylated α-tubulin (0.1 uM), the “Ratio acetyl tub/tub fold increase” value was 2.68 (0.1 uM) fold. In addition, on Human HDAC1 (setting [1]), the half-inhibitory concentration (IC50) turned out to be 17600 nM. Moreover, the fold induction at 10 µM with Nrf2 turned out to be 2.3.

On to `COc1ccc2c(c1)CCN2Cc1ccc(C(=O)NO)cc1` [II-ING-49, N-Hydroxy-4-((5-methoxyindolin-1-yl)methyl)benzamide], for which the “Ratio acetyl tub/tub fold increase” value with acetylated α-tubulin (0.1 uM) is reported as 2.61 (0.1 uM) fold. Also, the half-maximal inhibitory concentration (IC50) on Human HDAC1 (setting [1]) was 4950 nM. Besides, the fold induction at 10 µM in the assay on Nrf2 stood at 2.4.

In the case of `O=C(NO)c1ccc(CN2CCc3cc(Cl)ccc32)cc1` [II-ING-39, 4-((5-Chloroindolin-1-yl)methyl)-N-hydroxybenzamide], the “Ratio acetyl tub/tub fold increase” value in the assay on acetylated α-tubulin (0.1 uM) is 1.69 (0.1 uM) fold. In addition, the IC50 at Human HDAC1 (setting [1]) was determined as 12700 nM. The same compound came in with a fold induction at 10 µM with Nrf2 of 6.5.

In the case of `O=C(NO)c1ccc(CN2CCc3cc(F)ccc32)cc1` [II-ING-42, 4-((5-Fluoroindolin-1-yl)methyl)-N-hydroxybenzamide], in the assay with acetylated α-tubulin (0.1 uM), the “Ratio acetyl tub/tub fold increase” value is 2.46 (0.1 uM) fold. Also, the IC50 on Human HDAC1 (setting [1]) was 20000 nM. Moreover, in the assay with Nrf2, the fold induction at 10 µM was determined as 7.7.

`O=C(NO)c1ccc(CN2C(=O)C(F)(F)c3ccccc32)cc1` [II-ING-66, 4-((3,3-Difluoro-2-oxoindolin-1-yl)methyl)-N-hydroxybenzamide]: the half-maximal inhibitory concentration (IC50) on Human HDAC1 (setting [1]) came to 3550 nM. Moreover, the fold induction at 10 µM in the assay on Nrf2 turned out to be 9.9.

The record behind these values is patent publication US10934255B2, “Nrf and HIF activators/HDAC inhibitors and therapeutic methods using the same” (THE BOARD OF TRUSTEES OF THE UNIVERSITY OF ILLINOIS, priority 2017, dated 2021).
